Measurements as given in patent US20160238590A1, “COMPOSITIONS AND METHODS RELATED TO OAT SENSITIVITY” (IMMUSANT, INC., priority 2013, published 2016).
Where no end group is shown, it is not given here. [ ]: non-standard residue; d: D form. pGlu = O=C1CC[C@@H](C(=O)O)N1

Columns and labels:
Assay in all cases: IFN-γ ELISpot with T cell clone
Assay type in all cases: cell-based, human
[1] = system: Patient 14 TCC-01; details: TCC Patient 14 TCC-01 (Table 5); mean no antigen 11.3, high background, SFU >25 considered as positive responses
Protocol: (§1) Peripheral blood mononuclear cells (PBMC) were isolated from heparinized whole blood using Ficoll-Paque™ Plus density-gradient centrifugation (GE Healthcare). IFN-γ ELISpot (Mabtech) was set up as previously described^8.
(§2) Isolation of TCC from CD patients was carried out as previously described^8. Briefly, CFSE-labeled PBMC were incubated with antigen for 7 days in IMDM supplemented with 5% heat-inactivated pooled human serum (PHS), 2 mM GlutaMAX™, 100 μM MEM non-essential amino acids (both from Gibco, Invitrogen), and 50 μM 2-mercaptoethanol (Sigma). Proliferated cells were single-cell sorted into 96-well plates containing IL-2, IL-4, anti-CD3 mAb, irradiated feeder cells (allogeneic PBMC and JY-EBV). TCC were expanded and maintained in IL-2 and IL-4 and tested for specificity by ELISpot with irradiated HLA-matched PBMC as antigen-presenting cells. Expanded clones were tested for HLA-DQ restriction, TCR Vbeta usage, and with lysine scans to work out minimal epitopes. See Table 1 below for TCC and epitope information.

[2] = system: Patient 2 TCC-01; details: TCC Patient 2 TCC-01 (Table 5); mean no antigen 1.1
Protocol: as §1, §2

[3] = system: Patient 6 TCC-01; details: TCC Patient 6 TCC-01 (Table 5); mean no antigen 2
Protocol: as §1, §2

Substance | IFN-γ ELISpot response (raw SFU) [1] [SFU] | IFN-γ ELISpot response (raw SFU) [2] [SFU] | IFN-γ ELISpot response (raw SFU) [3] [SFU]
pEPFPEQPEQPYPQQ ([pGlu]PFPEQPEQPYPQQ) [wheat peptide, CAC11056.1 (53-66) [Q53 to pyroglutamate, Q57 to E, Q60 to E], reference compound] | 19 | 150 | 1
pEQPFPEQPFPEQPQPY ([pGlu]QPFPEQPFPEQPQPY) [barley peptide, AFM77740.1 (21-36) [Q21 to pyroglutamate, Q26 to E, Q31 to E]] | 27 | 229 | 64
pEQPFPQPEQPQLPF ([pGlu]QPFPQPEQPQLPF) [wheat peptide, AAK84772.1 (126-139) [Q126 to pyroglutamate, Q133 to E], reference compound] | 14 | 4 | 23
pEQPFPQPEQPTPIQ ([pGlu]QPFPQPEQPTPIQ) [rye peptide, AAB58403.1 (65-78) [Q65 to pyroglutamate, Q72 to E], reference compound] | 20 | 1 | 34
pEQPFTQPEQPTPIQ ([pGlu]QPFTQPEQPTPIQ) [wheat peptide, AAG17702.1 (78-91) [Q78 to pyroglutamate, Q85 to E], reference compound] | 13 | 0 | 65
pEQPQPYPEQPQPYP ([pGlu]QPQPYPEQPQPYP) [barley peptide, AFM77740.1 (31-44) [Q31 to pyroglutamate, Q38 to E]] | 27 | 316 | 52
